This passage reports IC50 results from patent publication US10174016B2 (BAYER AKTIENGESELLSCHAFT, priority 2014, dated 2019).

The target in test [1] is human P2X2/3 receptor (Homo sapiens (Human), UniProt P56373+Q9UBL9). The test is described as follows: Intracellular calcium measurement (FLIPR, Fluo-4) of antagonist activity at human P2X2/3 receptors. The class given is cell-based. On the procedure: (§1) Intracellular Calcium Measurement to Assess Antagonist Activity at Human P2X3 and Human P2X2/3 Receptors
(§2) A fluorescent imaging plate reader (FLEX/FLIPR station; Molecular Devices) was used to monitor intracellular calcium levels using the calcium-chelating dye Fluo-4 (Molecular Probes). […] Cells expressing purinergic receptors P2X3 (human) or P2X2/3 (human) were plated at a density of 15,000 cells/well in collagen-coated 384-well plates approximately 20 hours before beginning the assay. […] The test compound was added in a volume of 5 μl and allowed to incubate for 30 min at 37° C. The final assay DMSO concentration is 1%. The agonist, α,β-Me-ATP, was added in a volume of 20 μl at a concentration representing the EC80 value. The fluorescence was measured for an interval of 90 sec at 2 sec intervals and analyzed based on the increase in peak relative fluorescence units (RFU) compared to the basal fluorescence. Peak fluorescence was used to determine the response to agonist obtained at each concentration of test compound by the following equation: % Response=100*(RFU(test compound)−RFU(control)/RFU(DMSO)−RFU(control))
(§3) The Examples were tested in triplicates per plate and mean values were plotted in Excel XLFit to determine IC50 values at the human P2X3 and human P2X2/3 receptors, percentage of maximal inhibition and the Hill coefficients.

Test [2] has as its target human P2X3 receptor (Homo sapiens (Human), UniProt P56373). The experiment in a line: Intracellular calcium measurement (FLIPR, Fluo-4) of antagonist activity at human P2X3 receptors. The class given is cell-based. As to conditions: read-out: hP2X3 IC50. On the procedure:
as §1, §2, §3
Background: A change in cytosolic calcium serves as a functional read-out for many receptors and channels.

Setting [3] is: human P2X2/3, FLIPR calcium assay, agonist α,β-Me-ATP, read-out: hP2X2/3 IC50.
Where [4] appears, read: human P2X3, FLIPR calcium assay, agonist α,β-Me-ATP.

Like-named read-outs stand apart in the source and are kept apart here.

human P2X2/3 receptor, sequence (P56373 whole entry): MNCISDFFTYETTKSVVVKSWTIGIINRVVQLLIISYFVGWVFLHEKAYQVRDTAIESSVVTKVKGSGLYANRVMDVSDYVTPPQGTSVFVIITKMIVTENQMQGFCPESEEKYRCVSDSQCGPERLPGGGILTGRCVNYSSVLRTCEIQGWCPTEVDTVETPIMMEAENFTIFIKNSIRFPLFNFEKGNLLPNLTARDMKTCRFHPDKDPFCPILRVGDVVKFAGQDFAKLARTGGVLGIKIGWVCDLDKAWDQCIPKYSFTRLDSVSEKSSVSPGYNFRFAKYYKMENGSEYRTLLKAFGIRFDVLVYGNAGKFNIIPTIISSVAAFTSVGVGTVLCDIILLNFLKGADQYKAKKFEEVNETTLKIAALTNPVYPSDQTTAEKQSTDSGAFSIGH
human P2X2/3 receptor, sequence (Q9UBL9 whole entry): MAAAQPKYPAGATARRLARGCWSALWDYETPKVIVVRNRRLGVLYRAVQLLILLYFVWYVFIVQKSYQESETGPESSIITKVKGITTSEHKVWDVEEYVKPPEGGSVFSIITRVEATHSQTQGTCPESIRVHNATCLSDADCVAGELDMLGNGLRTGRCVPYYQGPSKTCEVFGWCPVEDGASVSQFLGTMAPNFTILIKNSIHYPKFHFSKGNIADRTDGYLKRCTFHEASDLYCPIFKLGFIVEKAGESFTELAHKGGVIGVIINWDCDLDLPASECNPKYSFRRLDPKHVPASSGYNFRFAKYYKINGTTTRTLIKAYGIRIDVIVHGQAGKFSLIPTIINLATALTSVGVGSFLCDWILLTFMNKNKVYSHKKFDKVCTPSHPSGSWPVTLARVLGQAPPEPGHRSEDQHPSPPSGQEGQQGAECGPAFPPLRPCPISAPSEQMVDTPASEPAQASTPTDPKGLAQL
human P2X3 receptor, sequence (P56373 whole entry): as the sequence (P56373 whole entry) above

Turning to `Cc1ncc([C@@H](C)NC(=O)c2cc(OCC3CC3)cc(-c3ncc(C)s3)c2)cn1` [Example 10, 3-(Cyclopropylmethoxy)-N-[(1R)-1-(2-methylpyrimidin-5-yl)ethyl]-5-(5-methyl-1,3-thiazol-2-yl)benzamide], the IC50 in test [1] (setting [3]) amounted to 185 nM; in test [2] (setting [4]) it was 7 nM.

On to `Cc1cnc(CNC(=O)c2cc(O[C@@H]3CCOC3)cc(-c3ncc(C)s3)c2)cn1` [Example 12, N-[(5-methylpyrazin-2-yl)methyl]-3-(5-methyl-1,3-thiazol-2-yl)-5-[(3R)-tetrahydrofuran-3-yloxy]benzamide], for which the IC50 is at least 10000 nM in test [1] (setting [3]) and 283 nM in test [2].

`Cc1cnc(-c2cc(O[C@@H]3CCOC3)cc(C(=O)NC(C)c3ncc(F)cc3Cl)c2)s1` (stereo partly drawn) [Example 13, N-[1-(3-chloro-5-fluoropyridin-2-yl)ethyl]-3-(5-methyl-1,3-thiazol-2-yl)-5-[(3R)-tetrahydrofuran-3-yloxy]benzamide]: the IC50 in test [1] (setting [3]) stood at 1100 nM; in test [2] (setting [4]) it was 21 nM.

As to `Cc1cnc(-c2cc(O[C@@H]3CCOC3)cc(C(=O)NC(C)c3ncc(Cl)cc3F)c2)s1` (stereo partly drawn) [Example 14, N-[1-(5-chloro-3-fluoropyridin-2-yl)ethyl]-3-(5-methyl-1,3-thiazol-2-yl)-5-[(3R)-tetrahydrofuran-3-yloxy]benzamide], the figures for the IC50 in test [1] (setting [3]) and in test [2] (setting [4]) were 88 nM and 8 nM, respectively.

As for `Cc1cnc(-c2cc(O[C@@H]3CCOC3)cc(C(=O)N[C@H](C)c3ccc(Cl)cn3)c2)s1` [Example 15, N-[(1R)-1-(5-chloropyridin-2-yl)ethyl]-3-(5-methyl-1,3-thiazol-2-yl)-5-[(3R)-tetrahydrofuran-3-yloxy]benzamide], the IC50 in test [1] (setting [3]) was 147 nM; in test [2] (setting [4]) it was 6 nM.

On to `Cc1ccc(CNC(=O)c2cc(O[C@@H]3CCOC3)cc(-c3ncc(C)s3)c2)nn1` [Example 17, N-[(6-methylpyridazin-3-yl)methyl]-3-(5-methyl-1,3-thiazol-2-yl)-5-[(3R)-tetrahydrofuran-3-yloxy]benzamide], for which the IC50 turned out to be 1010 nM in test [1] (setting [3]) and 35 nM in test [2] (setting [4]).

In the case of `Cc1ccc([C@@H](C)NC(=O)c2cc(O[C@@H]3CCOC3)cc(-c3ncc(C)s3)c2)nn1` [Example 18, N-[(1R)-1-(6-methylpyridazin-3-yl)ethyl]-3-(5-methyl-1,3-thiazol-2-yl)-5-[(3R)-tetrahydrofuran-3-yloxy]benzamide], the results for the IC50 in test [1] (setting [3]) and in test [2] (setting [4]) were 427 nM and 34 nM, respectively.

For `Cc1cnc(-c2cc(O[C@@H]3CCOC3)cc(C(=O)N[C@H](C)c3ccc(C(F)(F)F)nn3)c2)s1` [Example 19, 3-(5-Methyl-1,3-thiazol-2-yl)-5-[(3R)-tetrahydrofuran-3-yloxy]-N-{(1R)-1-[6-(trifluoromethyl)pyridazin-3-yl]ethyl}benzamide], the figures for the IC50 in test [1] (setting [3]) and in test [2] (setting [4]) were 749 nM and 19 nM, respectively.

Consider `Cc1cnc(-c2cc(O[C@@H]3CCOC3)cc(C(=O)N[C@H](C)c3nnc(C)s3)c2)s1` [Example 20, N-[(1R)-1-(5-methyl-1,3,4-thiadiazol-2-yl)ethyl]-3-(5-methyl-1,3-thiazol-2-yl)-5-[(3R)-tetrahydrofuran-3-yloxy]benzamide], for which the values for the IC50 in test [1] (setting [3]) and in test [2] (setting [4]) were 486 nM and 35 nM, respectively.

On to `Cc1cnc(-c2cc(O[C@@H]3CCOC3)cc(C(=O)NCc3ccc(C(F)(F)F)nn3)c2)s1` [Example 21, 3-(5-Methyl-1,3-thiazol-2-yl)-5-[(3R)-tetrahydrofuran-3-yloxy]-N-{[6-(trifluoromethyl)pyridazin-3-yl]methyl}benzamide], for which the IC50 in test [1] (setting [3]) is 445 nM; in test [2] (setting [4]), 71 nM.

With `CC[C@@H](NC(=O)c1cc(O[C@@H]2CCOC2)cc(-c2ncc(C)s2)c1)c1cnc(C(F)(F)F)nc1` [Example 22, 3-(5-Methyl-1,3-thiazol-2-yl)-5-[(3R)-tetrahydrofuran-3-yloxy]-N-{(1R)-1-[2-(trifluoromethyl)pyrimidin-5-yl]propyl}benzamide], the IC50 in test [1] (setting [3]) turned out to be 987 nM; in test [2] (setting [4]) it was 132 nM.

As to `Cc1ncc([C@@H](C)NC(=O)c2cc(O[C@@H]3CCOC3)cc(-c3ncc(C)s3)c2)cn1` [Example 23, N-[(1R)-1-(2-Methylpyrimidin-5-yl)ethyl]-3-(5-methyl-1,3-thiazol-2-yl)-5-[(3R)-tetrahydrofuran-3-yloxy]benzamide], the IC50 in test [1] (hP2X2/3 IC50 (nM)) was 1110 nM; in test [2] it was 30 nM.

Turning to `Cc1ccc([C@@H](C)NC(=O)c2cc(O[C@@H]3CCOC3)cc(-c3ncc(C)s3)c2)cn1` [Example 24, N-[(1R)-1-(6-Methylpyridin-3-yl)ethyl]-3-(5-methyl-1,3-thiazol-2-yl)-5-[(3R)-tetrahydrofuran-3-yloxy]benzamide], the results for the IC50 in test [1] (setting [3]) and in test [2] (setting [4]) were 332 nM and 36 nM, respectively.

For `Cc1ccc([C@@H](C)NC(=O)c2cc(O[C@H]3CCOC3)cc(-c3ncc(C)s3)c2)nn1` [Example 25, N-[(1R)-1-(6-Methylpyridazin-3-yl)ethyl]-3-(5-methyl-1,3-thiazol-2-yl)-5-[(3S)-tetrahydrofuran-3-yloxy]benzamide], the IC50 turned out to be 975 nM in test [1] (setting [3]) and 39 nM in test [2] (setting [4]).

Take `Cc1cnc(-c2cc(O[C@H]3CCOC3)cc(C(=O)N[C@H](C)c3ccc(Cl)cn3)c2)s1` [Example 27, N-[(1R)-1-(5-Chloropyridin-2-yl)ethyl]-3-(5-methyl-1,3-thiazol-2-yl)-5-[(3S)-tetrahydrofuran-3-yloxy]benzamide]: the IC50 was determined as 280 nM in test [1] (setting [3]) and 25 nM in test [2] (setting [4]).

In the case of `Cc1ccc([C@@H](C)NC(=O)c2cc(O[C@H]3CCOC3)cc(-c3ncc(C)s3)c2)nc1` [Example 28, N-[(1R)-1-(5-Methylpyridin-2-yl)ethyl]-3-(5-methyl-1,3-thiazol-2-yl)-5-[(3S)-tetrahydrofuran-3-yloxy]benzamide], the IC50 in test [1] (setting [3]) was 121 nM; in test [2] (setting [4]), 48 nM.

Turning to `Cc1ccc([C@@H](C)NC(=O)c2cc(O[C@H]3CCOC3)cc(-c3ncc(C)s3)c2)cn1` [Example 30, N-[(1R)-1-(6-methylpyridin-3-yl)ethyl]-3-(5-methyl-1,3-thiazol-2-yl)-5-[(3S)-tetrahydrofuran-3-yloxy]benzamide], the IC50 in test [1] (setting [3]) is 485 nM; in test [2] (setting [4]), 38 nM.

Take `C#CCOc1cc(C(=O)NCc2ccc(C)nn2)cc(-c2ncc(C)s2)c1` [Example 31, N-[(6-Methylpyridazin-3-yl)methyl]-3-(5-methyl-1,3-thiazol-2-yl)-5-(prop-2-yn-1-yloxy)benzamide]: the IC50 in test [1] (setting [3]) is at least 10000 nM; in test [2] (setting [4]), 173 nM.

As to `C#CCOc1cc(C(=O)N[C@H](C)c2ccc(C)nc2)cc(-c2ncc(C)s2)c1` [Example 33, N-[(1R)-1-(6-Methylpyridin-3-yl)ethyl]-3-(5-methyl-1,3-thiazol-2-yl)-5-(prop-2-yn-1-yloxy)benzamide], the IC50 was determined as 912 nM in test [1] (setting [3]) and 29 nM in test [2] (setting [4]).

Regarding `C#CCOc1cc(C(=O)N[C@H](C)c2cnc(C)cn2)cc(-c2ncc(C)s2)c1` [Example 34, N-[(1R)-1-(5-Methylpyrazin-2-yl)ethyl]-3-(5-methyl-1,3-thiazol-2-yl)-5-(prop-2-yn-1-yloxy)benzamide], the IC50 was 2120 nM in test [1] (setting [3]) and 111 nM in test [2] (setting [4]).

As for `C#CCOc1cc(C(=O)NCc2cnc(C)cn2)cc(-c2ncc(C)s2)c1` [Example 35, N-[(5-Methylpyrazin-2-yl)methyl]-3-(5-methyl-1,3-thiazol-2-yl)-5-(prop-2-yn-1-yloxy)benzamide], the IC50 is at least 10000 nM in test [1] (setting [3]) and 460 nM in test [2] (setting [4]).
